Measurements from patent publication EP0262209B1, “SYNERGISTIC PLANT GROWTH REGULATOR COMPOSITIONS” (RHONE POULENC NEDERLAND B.V., priority 1986, dated 1987).

Experiments:
snapbean plants [1] = assay: Defoliation of snapbean plants, foliar spray (Example VI, Table C); assay type: in vivo, Phaseolus vulgaris var. Cranberry; settings: Phaseolus vulgaris, foliar spray, 96 hours after treatment, read-out: Percent Defoliation; for pest or weed control at 280.212 g/ha: Rate 0.25 Pounds per Acre; for pest or weed control at 560.425 g/ha: Rate 0.50 Pounds per Acre
Experimental: Solutions of the test compounds and compositions identified in Table C below were prepared by dissolving the compounds in acetone/water (50:50 volume/volume) containing 0.1 percent volume/volume of Triton X-100 surfactant commercially available from Rhom and Haas Company, Philadelphia, Pennsylvania. As detailed below, these solutions of the test compounds and compositions were applied to snapbean plants at a concentration of 0.25 pounds of each active ingredient per acre (0.28 kg/ha) or 0.50 pounds of each active ingredient per acre (0.56 kg/ha). The compositions were applied to the snapbean plants as a mixture. Ethephon is commercially available from Union Carbide Agricultural Products Company, Inc., Research Triangle Park, North Carolina.
Into 13.5 centimeter diameter plastic pots containing a potting soil mix, i.e., one-third sandy loam soil, one-third peat moss and one-third perlite by volume, were sown three snapbean seeds (Phaseolus vulgaris var. Cranberry). Five to seven days after planting, the plants were thinned to one plant per pot. Ten to fourteen days after planting at the time of full expansion of the primary leaves, each concentration of the test compounds and compositions identified in […] (each pot sprayed with a volume equivalent to 180 gallons per acre) - i.e. 1683 l/ha was applied to three snapbean plants as a foliar spray by use of an aspirated spray apparatus set at 10 psig air pressure (517 mmHg). As a control, a water-acetone solution containing no test compound or composition was also sprayed on three snapbean plants. When dry, all or the plants were placed in a greenhouse at a temperature of 80°F ± 5°F (27°C ± 3°C) and humidity of 50 percent ± 5 percent. At 96 hours after treatment, percent defoliation of the snapbean plants was determined by visual observation. The values obtained For the control and each test compound and composition were averaged to obtain the results in Table C.

snapbean plants [2] = assay: Abscission of snapbean plant leaves with ethylene gas exposure (Example XVII, Table N); assay type: in vivo, Phaseolus vulgaris var. Cranberry; settings: Concentration 0.1 ppm ethylene gas

O=C(O)C1(C(=O)Nc2cc(Cl)c(Cl)cc2Cl)CC1 [Compound 112]
pest or weed control at 280.212 g/ha (snapbean plants [1]): 0% | pest or weed control at 560.425 g/ha (snapbean plants [1]): 0%

O=C(O)C1(C(=O)Nc2cc(Cl)ccc2Cl)CC1 [Compound 113]
pest or weed control at 280.212 g/ha (snapbean plants [1]): 0% | pest or weed control at 560.425 g/ha (snapbean plants [1]): 0%

O=C(O)C1(C(=O)Nc2ccc(Cl)cc2Cl)CC1 [Compound 114]
pest or weed control at 280.212 g/ha (snapbean plants [1]): 0% | pest or weed control at 560.425 g/ha (snapbean plants [1]): 0%

O=C(O)C1(C(=O)Nc2ccc(Cl)cc2F)CC1 [Compound 115]
pest or weed control at 280.212 g/ha (snapbean plants [1]): 0% | pest or weed control at 560.425 g/ha (snapbean plants [1]): 0%

O=C(O)C1(C(=O)Nc2ccc(Cl)cc2)CC1 [Compound 116]
pest or weed control at 280.212 g/ha (snapbean plants [1]): 0% | pest or weed control at 560.425 g/ha (snapbean plants [1]): 0%

O=C(O)C1(C(=O)Nc2ccc(Br)cc2)CC1 [Compound 117]
pest or weed control at 280.212 g/ha (snapbean plants [1]): 0% | pest or weed control at 560.425 g/ha (snapbean plants [1]): 0%

O=C(O)C1(C(=O)Nc2ccc(Br)cc2Br)CC1 [Compound 120]
pest or weed control at 280.212 g/ha (snapbean plants [1]): 0% | pest or weed control at 560.425 g/ha (snapbean plants [1]): 0%

O=C(O)C1(C(=O)Nc2ccc(Br)cc2Cl)CC1 [Compound 121]
pest or weed control at 280.212 g/ha (snapbean plants [1]): 0% | pest or weed control at 560.425 g/ha (snapbean plants [1]): 0%

O=C(O)C1(C(=O)Nc2ccc(Cl)cc2Br)CC1 [Compound 122]
pest or weed control at 280.212 g/ha (snapbean plants [1]): 0% | pest or weed control at 560.425 g/ha (snapbean plants [1]): 0%

O=C(O)C1(C(=O)Nc2ccc(Br)c(Cl)c2)CC1 [Compound 123]
pest or weed control at 280.212 g/ha (snapbean plants [1]): 0% | pest or weed control at 560.425 g/ha (snapbean plants [1]): 0%

C=C [Ethylene Gas, ethylene, reference compound]
Percent Abscission 48 Hours (snapbean plants [2]; 48 Hours): 0% | Percent Abscission 96 Hours (snapbean plants [2]; 96 Hours): 0%
